Columns and labels:
[1] = molecular target: T1, FLT3-ITD (Homo sapiens, UniProt P36888); assay: FLT3-ITD biochemical kinase assay (AlphaScreen)
T1 construct: FLT3-ITD; Invitrogen #PV6190
T1 sequence (P36888 1-993): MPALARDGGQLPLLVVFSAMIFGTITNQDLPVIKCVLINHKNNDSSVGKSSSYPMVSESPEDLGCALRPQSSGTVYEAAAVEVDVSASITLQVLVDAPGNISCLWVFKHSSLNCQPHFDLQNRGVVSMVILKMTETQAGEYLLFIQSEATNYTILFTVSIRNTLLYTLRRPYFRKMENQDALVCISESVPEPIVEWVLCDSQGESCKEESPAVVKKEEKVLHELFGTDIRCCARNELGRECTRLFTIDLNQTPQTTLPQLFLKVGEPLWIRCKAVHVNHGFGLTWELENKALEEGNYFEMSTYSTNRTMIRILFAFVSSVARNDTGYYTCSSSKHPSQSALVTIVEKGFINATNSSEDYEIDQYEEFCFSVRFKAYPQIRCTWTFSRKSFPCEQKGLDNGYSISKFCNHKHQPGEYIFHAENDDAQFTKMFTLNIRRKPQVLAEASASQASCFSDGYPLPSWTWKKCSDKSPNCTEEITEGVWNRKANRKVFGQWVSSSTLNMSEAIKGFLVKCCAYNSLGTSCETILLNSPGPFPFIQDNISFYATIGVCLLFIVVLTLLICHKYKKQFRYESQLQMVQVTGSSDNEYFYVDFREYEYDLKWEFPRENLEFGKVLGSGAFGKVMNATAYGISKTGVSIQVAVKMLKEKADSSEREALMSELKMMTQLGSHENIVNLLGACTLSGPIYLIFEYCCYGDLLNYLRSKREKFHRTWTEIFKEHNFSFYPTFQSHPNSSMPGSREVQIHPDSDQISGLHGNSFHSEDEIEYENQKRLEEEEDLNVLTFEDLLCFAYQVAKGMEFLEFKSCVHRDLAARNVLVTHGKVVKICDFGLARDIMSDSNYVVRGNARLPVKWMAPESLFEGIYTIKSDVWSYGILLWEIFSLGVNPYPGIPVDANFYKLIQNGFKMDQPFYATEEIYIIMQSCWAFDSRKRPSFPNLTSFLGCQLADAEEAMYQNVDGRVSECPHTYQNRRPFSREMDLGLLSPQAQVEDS
How it was run: (§1)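 Compounds were tested against recombinant enzyme using AlphaScreen detection of tyrosine-phosphorylated biotin-poly(Glu4-Tyr) (30 nM final). The ATP concentration differed by construct: 10 μM for D835Y, 100 μM for ITD.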

[2] = molecular target: T2, FLT3-D835Y (Homo sapiens, UniProt P36888, D835Y); assay: FLT3-D835Y biochemical kinase assay (AlphaScreen)
T2 construct: purchased Invitrogen PV3967
T2 sequence (P36888 27-993 D835Y): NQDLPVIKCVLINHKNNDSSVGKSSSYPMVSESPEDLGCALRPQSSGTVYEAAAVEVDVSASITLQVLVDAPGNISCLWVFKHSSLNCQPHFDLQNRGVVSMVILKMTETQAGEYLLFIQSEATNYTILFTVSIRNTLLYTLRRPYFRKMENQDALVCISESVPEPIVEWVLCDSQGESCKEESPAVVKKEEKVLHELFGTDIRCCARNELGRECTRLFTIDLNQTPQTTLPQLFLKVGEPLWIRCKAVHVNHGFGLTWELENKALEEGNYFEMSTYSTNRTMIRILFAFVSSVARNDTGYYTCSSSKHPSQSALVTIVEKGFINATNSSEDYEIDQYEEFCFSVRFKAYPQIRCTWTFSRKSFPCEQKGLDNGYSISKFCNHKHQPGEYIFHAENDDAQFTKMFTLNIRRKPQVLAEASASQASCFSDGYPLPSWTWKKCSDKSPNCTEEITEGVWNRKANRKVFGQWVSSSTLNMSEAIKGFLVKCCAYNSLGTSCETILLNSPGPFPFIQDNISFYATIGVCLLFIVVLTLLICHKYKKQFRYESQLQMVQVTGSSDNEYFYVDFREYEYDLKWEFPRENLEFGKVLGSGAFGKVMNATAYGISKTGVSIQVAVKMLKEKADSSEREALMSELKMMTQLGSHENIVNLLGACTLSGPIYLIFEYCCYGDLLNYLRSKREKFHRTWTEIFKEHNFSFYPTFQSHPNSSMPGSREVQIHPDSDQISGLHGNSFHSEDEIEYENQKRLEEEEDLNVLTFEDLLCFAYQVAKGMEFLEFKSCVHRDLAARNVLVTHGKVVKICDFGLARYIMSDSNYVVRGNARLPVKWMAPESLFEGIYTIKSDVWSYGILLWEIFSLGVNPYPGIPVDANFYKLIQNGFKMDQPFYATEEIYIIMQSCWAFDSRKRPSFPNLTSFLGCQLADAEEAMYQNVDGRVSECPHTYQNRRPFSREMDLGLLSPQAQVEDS
How it was run: as §1

Q: For `CC(C)(C)n1cnc2ccc(-c3c[nH]c4ncc(-c5ccnc(N6CCCCS6(=O)=O)c5)nc34)cc21` [P-309, 2-[4-[7-(3-tert-butylbenzimidazol-5-yl)-5H-pyrrolo[2,3-b]pyrazin-2-yl]-2-pyridyl]thiazinane 1,1-dioxide], which IC50 [1] is on record?
A: 0.0001 to 1 µM

Q: And the IC50 [2]?
A: 0.0001 to 1 µM

Q: What does the source list for `O=S1(=O)CCCN1c1ccc(-c2cnc3[nH]cc(-c4ccc5ncn(C6CCCNC6)c5c4)c3c2)cc1` (centres unmarked) [P-319, 2-[4-[3-[3-(3-piperidyl)benzimidazol-5-yl]-1H-pyrrolo[2,3-b]pyridin-5-yl]phenyl]-1,2-thiazolidine 1,1-dioxide]?
A: IC50 [1]: 0.0001 to 1 µM; IC50 [2]: 0.0001 to 1 µM

Q: For `COc1cnc2[nH]cc(-c3ccc4ncn(C5CCCNC5)c4c3)c2c1` (centres unmarked) [P-079, 5-methoxy-3-[3-(3-piperidyl)benzimidazol-5-yl]-1H-pyrrolo[2,3-b]pyridine], which IC50 [1] is on record?
A: 0.0001 to 1 µM

Q: What about the IC50 [2] of the same compound?
A: 0.0001 to 1 µM

Q: For `c1cc(-c2cnc3[nH]cc(-c4ccc5ncn(C6CCCNC6)c5c4)c3c2)cc(N2CCOCC2)c1` (centres unmarked) [P-317, 4-[3-[3-[3-(3-piperidyl)benzimidazol-5-yl]-1H-pyrrolo[2,3-b]pyridin-5-yl]phenyl]morpholine], which IC50 [1] is on record?
A: 0.0001 to 1 µM

Q: And the IC50 [2]?
A: 0.0001 to 1 µM

Q: With `Cc1ncc(C#Cc2cnc3[nH]cc(-c4ccc5ncn(C6CCCNC6)c5c4)c3n2)cn1` (centres unmarked) [P-285, 2-[2-(2-methylpyrimidin-5-yl)ethynyl]-7-[3-(3-piperidyl)benzimidazol-5-yl]-5H-pyrrolo[2,3-b]pyrazine] as the compound, how does the IC50 [1] read?
A: 0.0001 to 1 µM

Q: And the IC50 [2]?
A: 0.0001 to 1 µM

Q: For `O=S1(=O)CCCN1c1cc(-c2cnc3[nH]cc(-c4ccc5ncn(C6CCCNC6)c5c4)c3n2)ccn1` (centres unmarked) [P-295, 2-[4-[7-[3-(3-piperidyl)benzimidazol-5-yl]-5H-pyrrolo[2,3-b]pyrazin-2-yl]-2-pyridyl]-1,2-thiazolidine 1,1-dioxide], which IC50 [1] is on record?
A: 0.0001 to 1 µM

Q: What about the IC50 [2] of the same compound?
A: 0.0001 to 1 µM

Q: Which results are given for `CN1CCN(c2ccc(-c3cnc4[nH]cc(-c5ccc6ncn(C7CCCNC7)c6c5)c4n3)cc2)CC1` (centres unmarked) [P-344, 2-[4-(4-methylpiperazin-1-yl)phenyl]-7-[3-(3-piperidyl)benzimidazol-5-yl]-5H-pyrrolo[2,3-b]pyrazine]?
A: IC50 [1]: 0.0001 to 1 µM; IC50 [2]: 0.0001 to 1 µM

Q: For `COc1cc(-c2cnc3[nH]cc(-c4ccc5ncn(C6CCCN(S(C)(=O)=O)C6)c5c4)c3n2)ccn1` (centres unmarked) [P-281, 2-(2-methoxy-4-pyridyl)-7-[3-(1-methylsulfonyl-3-piperidyl)benzimidazol-5-yl]-5H-pyrrolo[2,3-b]pyrazine], which IC50 [1] is on record?
A: 0.0001 to 1 µM

Q: And the IC50 [2]?
A: 0.0001 to 1 µM

Q: Which results are given for `Cn1cnc2ccc(-c3c[nH]c4nnc(Cl)cc34)cc21` [P-313, 3-chloro-5-(3-methylbenzimidazol-5-yl)-7H-pyrrolo[2,3-c]pyridazine]?
A: IC50 [1]: 0.0001 to 1 µM; IC50 [2]: 0.0001 to 1 µM

Q: With `COc1cnc2[nH]cc(-c3ccc4ncn(C(C)(C)C)c4c3)c2c1` [P-074, 1-tert-butyl-6-(5-methoxy-1H-pyrrolo[2,3-b]pyridin-3-yl)benzimidazole] as the compound, how does the IC50 [2] read?
A: 0.0001 to 1 µM

Q: How did the IC50 [1] turn out when `CC(C)(C)n1cnc2ccc(-c3c[nH]c4ncc(-c5cnc(F)c(F)c5)nc34)cc21` [P-390, 7-(3-tert-butylbenzimidazol-5-yl)-2-(5,6-difluoro-3-pyridyl)-5H-pyrrolo[2,3-b]pyrazine] was run?
A: 1 to 10 µM

Q: How did the IC50 [2] turn out when `COc1cnc2[nH]cc(-c3ccc4ncn(-c5ccccc5)c4c3)c2c1` [P-068, 5-methoxy-3-(3-phenylbenzimidazol-5-yl)-1H-pyrrolo[2,3-b]pyridine] was run?
A: 0.0001 to 1 µM

Q: How did the IC50 [2] turn out when `CC(C)(C)n1cnc2ccc(-c3c[nH]c4ncc(-c5ccnc(C#N)c5)nc34)cc21` [P-301, 4-[7-(3-tert-butylbenzimidazol-5-yl)-5H-pyrrolo[2,3-b]pyrazin-2-yl]pyridine-2-carbonitrile] was run?
A: 0.0001 to 1 µM

Q: For `COc1ncc(-c2cnc3[nH]cc(-c4ccc5ncn(C(C)(C)C)c5c4)c3n2)cc1C#N` [P-405, 5-[7-(3-tert-butylbenzimidazol-5-yl)-5H-pyrrolo[2,3-b]pyrazin-2-yl]-2-methoxy-pyridine-3-carbonitrile], which IC50 [1] is on record?
A: 0.0001 to 1 µM

— patent US10160755B2 (Plexxikon Inc., priority 2015, dated 2018)
